The record followed here is paper PMC7074166, “Screening for Small Molecule Modulators of Trypanosoma brucei Hsp70 Chaperone Activity Based upon Alcyonarian Coral-Derived Natural Products” (Marine Drugs, 2020).

Each structure is given as a SMILES string. pIC50: −log10 of the molar value. Like-named read-outs stand apart in the source and are kept apart here.

Experiment [1] relates to bloodstream form T. b. brucei parasites. The experiment is described as follows: Resazurin-based anti-trypanosomal assay on bloodstream form T. b. brucei parasites. The class given is cell-based, Trypanosoma brucei brucei. The settings on record: for pIC50 / IC50: Trypanosoma brucei; for IC50: Table 1, dose-response, read-out: IC50/μM. How it is done:
Bloodstream form T. b. brucei Lister 927 variant 221 strain parasites were cultured in filter sterilized complete Iscoves Modified Dulbeccos Media (IMDM) based HM1-9 medium (IMDM base powder, […] sodium bicarbonate, 1 mM hypoxanthine, 1 mM sodium pyruvate, 0.16 mM thymidine, 0.05 mM bathocuprone sulphate acid, 10% (v/v) heat inactivated foetal bovine serum, 1.5 mM L-cysteine, 0.2 mM β-mercaptoethanol, pH 7.5) in a humidified chamber at 37 °C with an atmosphere of 5% CO2. Parasite growth was monitored using a Neubauer haemocytometer to count the cell number, after which cells were diluted, according to their density, in the described pre-warmed media.
All compounds of interest were resuspended to stocks of 30 mM in DMSO and stored at −80 °C prior to use in in vitro experiments. For assessment of anti-trypanosomal activity, compounds were added to in vitro cultures of bloodstream form T. b. brucei parasites (1 × 10^5 cells/mL) in 96-well plates at a fixed concentration of 20 μM. After an incubation period of 48 h, the number of parasites surviving drug exposure were determined using a resazurin-based cytotoxicity assay. Resazurin is an oxidation–reduction sensitive dye that is reduced by living cells to resorufin. Resorufin is a fluorophore (Excitation560/Emission590) and thus was quantified in a multi-well fluorescence plate reader. Results are expressed as % parasite viability—the resorufin fluorescence in small molecule-treated wells relative to untreated controls. Assessment of each small molecule was conducted in duplicate, with error bars representing standard deviation (SD). […] The compounds were added to in vitro cultures of bloodstream form T. b. brucei parasites (1 × 10^5 cells/mL) in 96-well plates in a 3-fold dilution series with 100 μM as the highest concentration. After an incubation period of 48 h, the number of parasites surviving drug exposure were determined as previously mentioned. The % parasite viability was determined as previously mentioned. The IC50 (the concentration of compound required to decrease cell viability of T. b. brucei parasites by 50% compared to those grown in the absence of the compound) values for each of the compounds were determined from a dose–response curve by non-linear regression generated using GraphPad Prism® (v. 7.0; San Diego, CA, USA) software. For comparative purposes, pentamidine at a fixed concentration of 1 μM was employed as a drug standard.
For orientation: The colour change of resazurin is a common sign of viable cells or microbes.

Another experiment has as its system TbHsp70.4 / Tbj2. The experiment is described as follows: Tbj2-stimulated ATPase activity assay, TbHsp70.4. In kind it is biochemical, Trypanosoma brucei. The note with it: TbHsp70.4, 150 μM, Figure 5B. How it is done: (§1) The determination of the ATPase activity of the Hsp70 proteins was performed using the high throughput colorimetric ATPase assay kit (Innova Biosciences, Cambridge, UK). This method enables the quantification of the inorganic phosphate (Pi) released from ATP hydrolysis by an enzyme. Briefly, the molecular chaperones were prepared in ATPase assay buffer (100 mM Tris-HCl, 7.5, 2 mM MgCl2, 50 mM KCl, 0.5 mM DTT) and incubated with ATP (0–2 mM) for 1 h at 37 °C. […] The samples containing Pi hydrolysed from ATP were incubated with the PiColorLock™ solution, which is a malachite green dye solution that in the presence of Pi changes absorbance due to generation of molybdate-phosphate complexes. The absorbance was measured at 595 nm using a Powerwave 96-well plate reader (BioTek Instruments, Inc., Winooski, VT, USA), and absorbance values were converted to phosphate concentrations using a standard curve of absorbance vs. phosphate concentration based on a set of Pi standards provided by the supplier assayed along with the samples. All samples were corrected for spontaneous breakdown of ATP observed in a control experiment in the absence of protein. The trypanosomal and human Hsp70s were used at 0.8 μM, and the J-proteins were used at 0.4 μM. An initial screen of the modulatory effects of the compounds on the ATPase activity of the Hsp70s was conducted using 300 μM of the compounds. Compounds identified to have a modulatory effect on the basal and J-protein-stimulated ATPase activity of Hsp70 were used at varying concentrations. The modulatory effect of the selected compounds on the basal and J-protein stimulated ATPase activity of the T. brucei Hsp70s was represented as fold change with the basal and J-protein stimulated ATPase activity of the Hsp70s taken as 1 respectively. These experiments were conducted on three independently purified batches of proteins, but due to limited availability of the selected compounds, each assay was conducted in duplicate on each batch of protein. In control reactions to evaluate the effect of DMSO on basal and J-protein stimulated ATPase activity of the Hsp70s, the solvent was added to a final concentration of 1% (v/v) in the assay. The assays were performed in duplicate on three independently purified batches of proteins.

Another experiment has as its target T1, TbHsp70 / Tbj2 (Trypanosoma brucei brucei, UniProt P11145).
T1 construct: His-tag; made in house; host or cells: Escherichia coli (Tbj2: E. coli BL21 (DE3))
The experiment is described as follows: Tbj2-stimulated ATPase activity assay, TbHsp70. The class given is biochemical. The settings on record: TbHsp70, 150 μM, Figure 5A. The protocol: as §1

Setting [2] is: T. b. brucei parasites, stated as bound, read-out: IC50 values.
Setting [3] is: T. b. brucei parasites cultured in vitro, 48 h.
Where [4] appears, read: Table S1, 48 select compounds, T. b. brucei, 48 h, read-out: IC50/.

T1 sequence (P11145 whole entry): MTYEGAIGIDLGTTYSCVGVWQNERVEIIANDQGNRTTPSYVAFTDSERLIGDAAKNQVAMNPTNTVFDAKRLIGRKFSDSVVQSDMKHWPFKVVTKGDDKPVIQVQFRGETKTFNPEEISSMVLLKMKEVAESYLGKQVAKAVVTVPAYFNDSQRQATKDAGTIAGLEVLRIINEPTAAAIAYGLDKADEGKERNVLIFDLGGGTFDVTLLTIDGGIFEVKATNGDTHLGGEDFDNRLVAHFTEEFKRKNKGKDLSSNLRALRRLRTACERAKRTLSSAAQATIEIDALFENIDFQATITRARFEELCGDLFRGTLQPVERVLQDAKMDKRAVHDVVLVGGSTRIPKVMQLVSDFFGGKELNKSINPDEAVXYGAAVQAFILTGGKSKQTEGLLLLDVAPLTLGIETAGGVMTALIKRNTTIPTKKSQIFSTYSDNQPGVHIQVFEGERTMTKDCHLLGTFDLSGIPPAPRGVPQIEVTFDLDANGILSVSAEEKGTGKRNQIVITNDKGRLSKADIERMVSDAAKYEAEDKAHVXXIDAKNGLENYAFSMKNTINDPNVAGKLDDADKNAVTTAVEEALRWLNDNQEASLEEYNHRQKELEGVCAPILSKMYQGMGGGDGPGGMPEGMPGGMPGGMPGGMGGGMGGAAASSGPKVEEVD

Turning to `CC(C)=CCC/C(C)=C/Cn1cnc2c1c(=O)[nH]c(=O)n2C/C=C(\C)CCC=C(C)C` [Compound 27, 3,7-Bis((E)-3,7-dimethylocta-2,6-dien-1-yl)-3,7-dihydro-1H-purine-2,6-dione], the pIC50 in experiment [1] (setting [2]) is over 5.15. Moreover, in experiment [1] (setting [3]), the IC50 was found to be 2 µM. For the same compound, the “effect of order of addition (compound vs Tbj2) on inhibition of J-stimulated ATPase activity” value in the experiment on TbHsp70.4 / Tbj2 and on TbHsp70 / Tbj2 was “no significant difference” in each case.
For `CC(C)=CCC/C(C)=C/CCC(C)=CCn1cnc2c1c(=O)[nH]c(=O)n2CC=C(C)CC/C=C(\C)CCC=C(C)C` [Compound 28, 3,7-Bis((6E)-3,7,11-trimethyldodeca-2,6,10-trien-1-yl)-3,7-dihydro-1H-purine-2,6-dione], the results for the pIC50 in experiment [1] (setting [2]) and in experiment [1] (setting [4]) were over 5.15 and 5.94, respectively. Also, the IC50 in experiment [1] (setting [3]) worked out at 1.2 µM. Moreover, the “effect of order of addition (compound vs Tbj2) on inhibition of J-stimulated ATPase activity” value with TbHsp70.4 / Tbj2 and at TbHsp70 / Tbj2 was “no significant difference” throughout.
Regarding `CC(C)=CCC/C(C)=C/CC/C(C)=C/Cn1cnc2c1c(=O)[nH]c(=O)n2C` [Compound 31, 3-methyl-7-((2E,6E)-3,7,11-trimethyldodeca-2,6,10-trien-1-yl)-3,7-dihydro-1H-purine-2,6-dione], the pIC50 was over 5.15 in experiment [1] (setting [2]) and 5.72 in experiment [1] (setting [4]). Moreover, the IC50 in experiment [1] (setting [3]) amounted to 1.9 µM. Moreover, the “effect of order of addition (compound vs Tbj2) on inhibition of J-stimulated ATPase activity” value with TbHsp70.4 / Tbj2 and on TbHsp70 / Tbj2 was “no significant difference” in each case.
With `CC(C)=CCC/C(C)=C/CC/C(C)=C/CC/C(C)=C\Cn1ccc(=O)[nH]c1=O` [Compound 56, 1-((2Z,6E,10E)-3,7,11,15-Tetramethylhexadeca-2,6,10,14-tetraen-1-yl)pyrimidine-2,4(1H,3H)-dione], in experiment [1] (setting [3]), the IC50 amounted to 6.2 µM.
Turning to `CC(C)=CCC/C(C)=C/CC/C(C)=C/CC/C(C)=C/Cn1cc(C)c(=O)[nH]c1=O` [Compound 59, 5-Methyl-1-((2E,6E,10E)-3,7,11,15-tetramethylhexadeca-2,6,10,14-tetraen-1-yl)pyrimidine-2,4(1H,3H)-dione], the IC50 in experiment [1] (setting [3]) worked out at 15.8 µM.
Consider `CC(C)=CCC/C(C)=C/CCC(C)=CCn1ccc(=N)n(CC=C(C)CC/C=C(\C)CCC=C(C)C)c1=O` [Compound 63, 4-imino-1,3-bis((6E)-3,7,11-trimethyldodeca-2,6,10-trien-1-yl)-3,4-dihydropyrimidin-2(1H)-one], for which the results for the pIC50 in experiment [1] (setting [2]) and in experiment [1] (setting [4]) were over 5.15 and 5.69, respectively. Moreover, the IC50 in experiment [1] (setting [3]) was 2.1 µM. For the same compound, the “effect of order of addition (compound vs Tbj2) on inhibition of J-stimulated ATPase activity” value in the experiment on TbHsp70.4 / Tbj2 and at TbHsp70 / Tbj2 was “no significant difference” throughout.
With `CC(C)=CCC/C(C)=C/CCC(C)=CCN1C(=O)c2ccccc2C1=O` [Compound 68, 2-((6E)-3,7,11-Trimethyldodeca-2,6,10-trien-1-yl)isoindoline-1,3-dione], the IC50 in experiment [1] (setting [3]) turned out to be 32.2 µM. Moreover, the pIC50 in experiment [1] (setting [4]) is 4.49.
On the same counts, the results for `CC(C)=CCC/C(C)=C/CC/C(C)=C/CC/C(C)=C/CN1C(=O)c2ccccc2C1=O` [Compound 69, 2-((2E,6E,10E)-3,7,11,15-Tetramethylhexadeca-2,6,10,14-tetraen-1-yl)isoindoline-1,3-dione] are 9.2 µM and 5.04.
With `CC(C)=CCC/C(C)=C/CCC(C)=CCn1ccnc1` [Compound 71, 1-((6E)-3,7,11-Trimethyldodeca-2,6,10-trien-1-yl)-1H-imidazole], the IC50 in experiment [1] (setting [3]) was 26.8 µM. For the same compound, the pIC50 in experiment [1] (setting [4]) is 4.57.
On the same counts, the results for `CC(C)=CCC/C(C)=C/CC/C(C)=C/CC/C(C)=C/Cn1ccnc1` [Compound 72, 1-((2E,6E,10E)-3,7,11,15-Tetramethylhexadeca-2,6,10,14-tetraen-1-yl)-1H-imidazole] are 3.4 µM and 5.47.
Regarding `CC(C)=CCC/C(C)=C/CC/C(C)=C\CNC=O` [Compound 74, N-((2Z,6E)-3,7,11-Trimethyldodeca-2,6,10-trien-1-yl)formamide], in experiment [1] (setting [3]), the IC50 was 27.3 µM. Further, the pIC50 in experiment [1] (setting [4]) is 4.56.
For the compound `CC(C)=CCC/C(C)=C/CCC(C)=CCNC=O` [Compound 75, N-((6E)-3,7,11-trimethyldodeca-2,6,10-trien-1-yl)formamide], in experiment [1] (T. b. brucei, screen at 20 μM), the “anti-trypanosomal activity (SAR statement)” value was “inactive”.
`CC(C)=CCC/C(C)=C/CC/C(C)=C/CC/C(C)=C\CNC=O` [Compound 76, N-((2Z,6E,10E)-3,7,11,15-Tetramethylhexadeca-2,6,10,14-tetraen-1-yl)formamide]: the IC50 in experiment [1] (setting [3]) is 11 µM. For the same compound, in experiment [1] (setting [4]), the pIC50 was 4.96.
On the same counts, the results for `CC(C)=CCC/C(C)=C/CC/C(C)=C/CC/C(C)=C/CNC=O` [Compound 77, N-((2E,6E,10E)-3,7,11,15-tetramethylhexadeca-2,6,10,14-tetraen-1-yl)formamide] are 41.8 µM and 4.38.
Regarding `CC(C)=CCC/C(C)=C/CC/C(C)=C/CC/C(C)=C/CN(C)C=O` [Compound 80, N-Methyl-N-((2E,6E,10E)-3,7,11,15-tetramethylhexadeca-2,6,10,14-tetraen-1-yl)formamide], the IC50 in experiment [1] (setting [3]) was determined as 41.2 µM. The pIC50 in experiment [1] (setting [4]) was 4.38.
For `CC(=O)NC/C=C(/C)CC/C=C(\C)CCC=C(C)C` [Compound 82, N-((2Z,6E)-3,7,11-Trimethyldodeca-2,6,10-trien-1-yl)acetamide], the IC50 in experiment [1] (setting [3]) came out at 4.5 µM. Also, the pIC50 in experiment [1] (setting [4]) is 5.35.
Consider `CC(=O)NC/C=C(\C)CC/C=C(\C)CCC=C(C)C` [Compound 83, N-((2E,6E)-3,7,11-trimethyldodeca-2,6,10-trien-1-yl)acetamide], for which the IC50 in experiment [1] (setting [3]) is 21.5 µM. The pIC50 in experiment [1] (setting [4]) was 4.67.
On the same counts, the results for `CC(=O)NC/C=C(/C)CC/C=C(\C)CC/C=C(\C)CCC=C(C)C` [Compound 84, N-((2Z,6E,10E)-3,7,11,15-Tetramethylhexadeca-2,6,10,14-tetraen-1-yl)acetamide] are 2.2 µM and 5.66.
On the same counts, the results for `CC(=O)NC/C=C(\C)CC/C=C(\C)CC/C=C(\C)CCC=C(C)C` [Compound 85, N-((2E,6E,10E)-3,7,11,15-tetramethylhexadeca-2,6,10,14-tetraen-1-yl)acetamide] are 3.1 µM and 5.50.
Regarding `CC(=O)N(C)C/C=C(\C)CC/C=C(\C)CC/C=C(\C)CCC=C(C)C` [Compound 88, N-Methyl-N-((2E,6E,10E)-3,7,11,15-tetramethylhexadeca-2,6,10,14-tetraen-1-yl)acetamide], in experiment [1] (setting [3]), the IC50 was 38.4 µM.
For the compound `N=C(N)c1ccc(OCCCCCOc2ccc(C(=N)N)cc2)cc1` [pentamidine, reference compound], the pIC50 in experiment [1] (T. b. brucei parasites cultured in vitro, positive control, read-out: IC50 of drug standard) was 8.28.
